≈ marks a conversion by molar mass, not a printed value. Where a name gives a salt, the structure may show the parent alone.
Columns and labels:
Experiment in all cases: Antibacterial activity, minimum inhibition concentration (method of The Chemotherapy Association, Japan)
Assay type in all cases: cell-based
Proteus vulgaris OX-19 = conditions: Proteus vulgaris, OX19, strain H: Proteus vulgaris OX-19; read-out: minimum inhibition concentration
Source text: (§1) The abbreviations A to P will be used in the following Tables 2 to 8.
(§2) Test results are shown in terms of the minimum inhibition concentration (µg/mℓ.) in the following Tables 2 to 8.

Proteus rettgeri NIH-96 = conditions: Providencia rettgeri, NIH96, strain I: Proteus rettgeri NIH-96; read-out: minimum inhibition concentration
Source text: as §1, §2

[1] = test system: Proteus mirabillis B-30-2 IFO-3849; conditions: strain G: Proteus mirabillis B-30-2 IFO-3849; read-out: minimum inhibition concentration
Procedure: (§3) Antibacterial activities of the compounds according to this invention, which had been prepared in the preceding Examples, were measured according to the method prescribed by The Committee of Amendment of "The method for measurement of the minimum inhibition concentration", The Chemotherapy Association, Japan (See Chemotherapy, Vol. 22, No. 6, pp. 1126 - 1128 (1974) and Vol. 29, No. 1, pp. 76 - 79 (1981)).
as §1, §2

Serratia marcescens 1023 = conditions: Serratia marcescens, 1023, strain E: Serratia marcescens 1023; read-out: minimum inhibition concentration
Procedure: as §3, §1, §2

[2] = test system: Pseudomonas aeruginosa NCTC-10490; conditions: Pseudomonas aeruginosa, NCTC10490, strain M: Pseudomonas aeruginosa NCTC-10490; read-out: minimum inhibition concentration
Procedure: as §3, §1, §2

[3] = test system: Citrobactor freundii NIH-10018 -68; conditions: strain O: Citrobactor freundii NIH-10018 -68; read-out: minimum inhibition concentration
Procedure: as §3, §1, §2

[4] = test system: Salmonella typhimurium 3173; conditions: Salmonella enterica, TYPHIMURIUM, strain D: Salmonella typhimurium 3173; read-out: minimum inhibition concentration
Procedure: as §3, §1, §2

Escherichia coli NIHJ = conditions: Escherichia coli, strain K: Escherichia coli NIHJ; read-out: minimum inhibition concentration
Procedure: as §3, §1, §2

Klebsiella pneumoniae = conditions: Klebsiella pneumoniae, strain C: Klebsiella pneumoniae; read-out: minimum inhibition concentration
Procedure: as §3, §1, §2

[5] = test system: Enterobactor cloacae NCTC-9394; conditions: strain N: Enterobactor cloacae NCTC-9394; read-out: minimum inhibition concentration
Procedure: as §3, §1, §2

Proteus morgani Kono = conditions: strain J: Proteus morgani Kono; read-out: minimum inhibition concentration
Procedure: as §3, §1, §2

Escherichia coli NIHJC-2 = conditions: Escherichia coli, NIHJC2, strain L: Escherichia coli NIHJC-2; read-out: minimum inhibition concentration
Procedure: as §3, §1, §2

[6] = test system: Bacillus subtilis ATCC 6633; conditions: for MIC: Bacillus subtilis, ATCC6633, strain B: Bacillus subtilis ATCC 6633, read-out: minimum inhibition concentration
Procedure: as §3, §1, §2

[7] = test system: Staphylococcus aureus 6538-P; conditions: strain A: Staphylococcus aureus 6538-P; read-out: minimum inhibition concentration
Procedure: as §3, §1, §2

[8] = test system: Serratia marcescens IFO-3736; conditions: Serratia marcescens, IFO3736, strain F: Serratia marcescens IFO-3736; read-out: minimum inhibition concentration
Procedure: as §3, §1, §2

SMILES | MIC (Proteus vulgaris OX-19) [µg/mL] | MIC (Proteus rettgeri NIH-96) [µg/mL] | MIC [1] [µg/mL] | MIC (Serratia marcescens 1023) [µg/mL] | MIC [2] [µg/mL] | MIC [3] [µg/mL] | MIC [4] [µg/mL] | MIC (Escherichia coli NIHJ) [µg/mL] | MIC (Klebsiella pneumoniae) [µg/mL] | MIC [5] [µg/mL] | MIC (Proteus morgani Kono) [µg/mL] | MIC (Escherichia coli NIHJC-2) [µg/mL] | MIC [6] [µg/mL] | MIC [7] [µg/mL] | MIC [8] [µg/mL] | minimum inhibition concentration ([6]; strain B: Bacillus subtilis ATCC 6633) [µg/mL]
Nc1nc(C(=CCl)C(=O)NC2C(=O)N3C(C(=O)[O-])=C(C[n+]4ccccc4)CSC23)cs1 (stereo not drawn) [Compound 24, 7-[2-chloromethylene-2-(2-aminothiazol-4-yl)acetamido]-3-pyridiniummethyl-3-cephem-4-carboxylic acid betaine] | 3.12 (≈ 6.54 µM) | 0.78 (≈ 1.63 µM) | 12.5 (≈ 26.2 µM) | 25 (≈ 52.3 µM) | > 100 | 25 (≈ 52.3 µM) | 25 (≈ 52.3 µM) | 1.56 (≈ 3.26 µM) | 25 (≈ 52.3 µM) | 12.5 (≈ 26.2 µM) | 25 (≈ 52.3 µM) | 25 (≈ 52.3 µM) | 25 (≈ 52.3 µM) | 6.25 (≈ 13.1 µM) | 50 (≈ 105 µM) | 
CC(=O)OCC1=C(C(=O)O)N2C(=O)C(NC(=O)C(=C(Cl)Cl)c3ccc(Cl)c(Cl)c3)[C@H]2SC1 (stereo partly drawn) [Compound 30, 7-[2-dichloromethylene-2-(3,4-dichlorophenyl)acetamido]-3-acetoxymethyl-3-cephem-4-carboxylic acid] | > 100 | 6.25 (≈ 11.6 µM) | > 100 | 6.25 (≈ 11.6 µM) | 100 (≈ 185 µM) | > 100 | > 100 | 100 (≈ 185 µM) | > 100 | > 100 | > 100 | > 100 | 0.78 (≈ 1.44 µM) | 100 (≈ 185 µM) | > 100 | 
CC(=O)OCC1=C(C(=O)O)N2C(=O)C(NC(=O)C(=C(Cl)Cl)c3csc(NC(=O)OC(C)(C)C)n3)C2SC1 (stereo not drawn) [5-(1), 7-[2-dichloromethylene-2-(2-tert-butoxycarbonyl-aminothiazol-4-yl)acetamido]-3-acetoxymethyl-3-cephem-4-carboxylic acid] | 0.39 (≈ 0.657 µM) | < 0.025 | 12.5 (≈ 21.1 µM) | 25 (≈ 42.1 µM) | 12.5 (≈ 21.1 µM) | 25 (≈ 42.1 µM) | 12.5 (≈ 21.1 µM) | 0.1 (≈ 0.169 µM) | 12.5 (≈ 21.1 µM) | 12.5 (≈ 21.1 µM) | 12.5 (≈ 21.1 µM) | 25 (≈ 42.1 µM) | 25 (≈ 42.1 µM) | 1.56 (≈ 2.63 µM) | 12.5 (≈ 21.1 µM) | 
CC(=O)OCC1=C(C(=O)O)N2C(=O)C(NC(=O)C(=C(Cl)Cl)c3ccc(Br)s3)[C@H]2SC1 (stereo partly drawn) [Compound 32, 7-[2-dichloromethylene-2-(5-bromo-2-thienyl)acetamido]-3-acetoxymethyl-3-cephem-4-carboxylic acid] | 100 (≈ 180 µM) | 0.78 (≈ 1.4 µM) | > 100 | 12.5 (≈ 22.5 µM) | 50 (≈ 89.9 µM) | > 100 | > 100 | 25 (≈ 44.9 µM) | > 100 | > 100 | > 100 | > 100 | 6.25 (≈ 11.2 µM) | 0.1 (≈ 0.18 µM) | > 100 | 
CC(=O)OCC1=C(C(=O)O)N2C(=O)C(NC(=O)C(=C(Cl)Cl)c3ccco3)[C@H]2SC1 (stereo partly drawn) [Compound 33, 7-[2-dichloromethylene-2-(2-furyl)acetamido]-3-acetoxymethyl-3-cephem-4-carboxylic acid] | 6.25 (≈ 13.5 µM) | 0.1 (≈ 0.217 µM) | 100 (≈ 217 µM) | 25 (≈ 54.2 µM) | 12.5 (≈ 27.1 µM) | 50 (≈ 108 µM) | 50 (≈ 108 µM) | 1.56 (≈ 3.38 µM) | 100 (≈ 217 µM) | 25 (≈ 54.2 µM) | > 100 | 100 (≈ 217 µM) | 6.25 (≈ 13.5 µM) | 0.39 (≈ 0.845 µM) | 100 (≈ 217 µM) | 
Cn1nnnc1SCC1=C(C(=O)O)N2C(=O)C(NC(=O)C(=C(Cl)Cl)c3csc(N)n3)C2SC1 (stereo not drawn) [6-(2), 7-[2-dichloromethylene-2-(2-aminothiazol-4-yl)-acetamido]-3-(l-methyl-lH-tetrazol-5-yl)thiomethyl-3-cephem-4-carboxylic acid] | 0.1 (≈ 0.182 µM) | < 0.025 | 12.5 (≈ 22.8 µM) | 12.5 (≈ 22.8 µM) | 3.12 (≈ 5.69 µM) | 6.25 (≈ 11.4 µM) | 6.25 (≈ 11.4 µM) | < 0.025 | 12.5 (≈ 22.8 µM) | 1.56 (≈ 2.84 µM) | 6.25 (≈ 11.4 µM) | 12.5 (≈ 22.8 µM) |  | 0.78 (≈ 1.42 µM) | 25 (≈ 45.5 µM) | 6.25 (≈ 11.4 µM)
CC(=O)OCC1=C(C(=O)O)N2C(=O)C(NC(=O)C(=C(Cl)Cl)c3cccn3C)[C@H]2SC1 (stereo partly drawn) [Compound 36, 7-[2-dichloromethylene-2-(1-methyl-2-pyrrolyl)acetamido]-3-acetoxymethyl-3-cephem-4-carboxylic acid] | 50 (≈ 105 µM) | 1.56 (≈ 3.29 µM) | > 100 | 100 (≈ 211 µM) | > 100 | > 100 | > 100 | 50 (≈ 105 µM) | > 100 | > 100 | > 100 | > 100 | 12.5 (≈ 26.4 µM) | 0.78 (≈ 1.64 µM) | > 100 | 
Cn1nnnc1SCC1=C(C(=O)O)N2C(=O)C(NC(=O)C(=C(Cl)Cl)c3ccsc3)C2SC1 (stereo not drawn) [Compound 35, 7-[2-dichloromethylene-2-(3-thienyl)acetamido]-3-(l-methyl-lH-tetrazol-5-yl)thiomethyl-3-cephem-4-carboxylic acid] | 25 (≈ 46.9 µM) | 0.1 (≈ 0.187 µM) | 100 (≈ 187 µM) | 3.12 (≈ 5.86 µM) | 12.5 (≈ 23.4 µM) | 100 (≈ 187 µM) | 25 (≈ 46.9 µM) | 3.12 (≈ 5.86 µM) | 50 (≈ 93.7 µM) | 12.5 (≈ 23.4 µM) | > 100 | 50 (≈ 93.7 µM) | 3.12 (≈ 5.86 µM) | 0.2 (≈ 0.375 µM) | 100 (≈ 187 µM) | 
Cn1nnnc1SCC1=C(C(=O)O)N2C(=O)C(NC(=O)C(=CCl)c3csc(N)n3)C2SC1 (stereo not drawn) [11-(3), 7-[2-chloromethylene-2-(2-aminothiazol-4-yl)-acetamido]-3-(1-methyl-lH-tetrazol-5-yl)thiomethyl-3-cephem-4-carboxylic acid sodium salt] | 0.025 | < 0.00625 | 0.39 | 6.25 | 1.56 | 0.78 | 0.78 | < 0.00625 | 0.78 | 0.2 | 0.2 | 0.78 | 3.12 | 0.39 | 0.78 | 

From EP0048954A2, “Beta-lactam compounds, process for the preparation thereof and intermediate products for the preparation thereof” (SAGAMI CHEMICAL RESEARCH CENTER, priority 1980, dated 1982)
